In ChEMBL document CHEMBL1151711, “Studies on quinones. Part 44: Novel angucyclinone N-heterocyclic analogues endowed with antitumoral activity” (Bioorg Med Chem, 2008):
pIC50: −log10 of the molar value.

Key:
SK-MES-1 = test: Cytotoxicity against human SK-MES-1 cells after 3 days by MTT assay; assay type: functional, cell-based; conditions: SK-MES-1, 72 h
AGS = test: Cytotoxicity against human AGS cells after 3 days by MTT assay; assay type: functional, cell-based; conditions: 72 h
J82 = test: Cytotoxicity against human J82 cells after 3 days by MTT assay; assay type: functional, cell-based; conditions: J82, 72 h
HL-60 = test: Cytotoxicity against human HL-60 cells after 3 days by MTT assay; assay type: functional, cell-based; conditions: HL-60, 72 h
MRC5 = test: Cytotoxicity against human MRC5 cells after 3 days by MTT assay; assay type: cell-based; conditions: MRC5, 72 h

| SMILES | pIC50 (SK-MES-1) | pIC50 (AGS) | pIC50 (J82) | pIC50 (HL-60) | pIC50 (MRC5) |
| --- | --- | --- | --- | --- | --- |
| Cc1nc2c(c3c1C(=O)c1c(O)cccc1C3=O)C(=O)CCC2 | 4.99 | 5.35 | 4.76 | 4.62 | 4.76 |
| Cc1cnc2c(c1)C(=O)c1c(cnc3c1C(=O)CCC3)C2=O | 5.77 | 5.92 | 5.74 | 5.62 | 6.14 |
| O=C1c2ccccc2C(=O)c2c1cnc1c2C(=O)CCC1 | 4.29 | 4.72 | 4.20 | 4.14 | 4.38 |
| Cn1c(=O)c2c3c(cnc2n(C)c1=O)C(=O)c1ccccc1C3=O | 5.05 | 5.46 | 5.06 | 4.69 | 4.90 |
| O=C1c2cnc3c(c2C(=O)c2cccc(O)c21)CCCC3 | 4.43 | 4.43 | 4.69 | 4.34 | 4.20 |
| Cc1nc2c(c3c1C(=O)c1c(O)cccc1C3=O)C(=O)CC(C)(C)C2 | 5.34 | 5.13 | 4.80 | 4.93 | 5.26 |
| Cn1c(=O)c2c3c(cnc2n(C)c1=O)C(=O)C=CC3=O | 4.17 | 4.09 | 4.10 | 4.50 | 4.14 |
| O=C1c2c(O)cccc2C(=O)c2c3c(cc(O)c21)CCCC3 | 4.13 | 4.38 | 4.16 | < 4.00 | < 4.00 |
| Cc1nc2c(c3c1C(=O)C=CC3=O)C(=O)CCC2 | 5.46 | 4.66 | 5.25 | 4.33 | 4.69 |
| Cc1nc2c(c3c1C(=O)c1c(O)cccc1C3=O)c(=O)n(C)c(=O)n2C | < 4.00 | 4.15 | < 4.00 | < 4.00 | < 4.00 |
| O=C1C=CC(=O)c2c1cnc1c2C(=O)CCC1 | 4.59 | 4.71 | 4.41 | 4.80 | 4.69 |
| Cc1nc2c(c3c1C(=O)c1ccccc1C3=O)C(=O)CC(C)(C)C2 | 4.87 | 5.35 | 4.72 | 4.76 | 4.80 |
| O=C1c2cnc3c(c2C(=O)c2cccc(O)c21)C(=O)CCC3 | 5.43 | 5.80 | 5.04 | 5.25 | 4.95 |
| Cc1nc2c(c3c1C(=O)C=CC3=O)c(=O)n(C)c(=O)n2C | 4.15 | 4.30 | 4.14 | 4.58 | 4.17 |
| CC1(C)CC(=O)c2c(ncc3c2C(=O)c2cccc(O)c2C3=O)C1 | 5.44 | 4.94 | 5.41 | 5.64 | 5.19 |
| Cn1c(=O)c2c3c(cnc2n(C)c1=O)C(=O)c1c(O)cccc1C3=O | 5.09 | 5.23 | 5.04 | 4.80 | 5.17 |
| CC1(C)CC(=O)c2c(ncc3c2C(=O)C=CC3=O)C1 | < 4.00 | 4.12 | 4.02 | 4.36 | 4.40 |
| Cc1nc2c(c3c1C(=O)c1ccccc1C3=O)C(=O)CCC2 | 4.92 | 5.02 | 5.11 | 4.34 | 4.67 |
| Cc1nc2c(c3c1C(=O)c1ccccc1C3=O)c(=O)n(C)c(=O)n2C | 5.28 | 4.72 | 4.60 | < 4.00 | < 4.00 |
